Laboratory results published in ChEMBL document CHEMBL3112491, “3-(5-)-Amino-o-diarylisoxazoles: regioselective synthesis and antitubulin activity” (2014).

What was measured:
Type in all cases: functional
MDA-MB-468 = assay: Growth inhibition of human MDA-MB-468 cells after 48 hrs by sulforhodamine B assay; details: MDA-MB-468, 48 h
T47D = assay: Growth inhibition of human T47D cells after 48 hrs by sulforhodamine B assay
[1] = Growth inhibition of human Hs 578T cells after 48 hrs by sulforhodamine B assay
BT-549 = assay: Growth inhibition of human BT549 cells after 48 hrs by sulforhodamine B assay; details: BT-549, 48 h
MCF7 = assay: Growth inhibition of human MCF7 cells after 48 hrs by sulforhodamine B assay; details: MCF7, 48 h
MDA-MB-231 = assay: Growth inhibition of human MDA-MB-231 cells after 48 hrs by sulforhodamine B assay; details: MDA-MB-231, 48 h
DU-145 = assay: Growth inhibition of human DU145 cells after 48 hrs by sulforhodamine B assay; details: DU-145, 48 h
PC-3 = assay: Growth inhibition of human PC3 cells after 48 hrs by sulforhodamine B assay; details: PC-3, 48 h
[2] = Growth inhibition of human UO31 cells after 48 hrs by sulforhodamine B assay; details: UO-31, 48 h
SN12C = assay: Growth inhibition of human SN12C cells after 48 hrs by sulforhodamine B assay
TK-10 = assay: Growth inhibition of human TK10 cells after 48 hrs by sulforhodamine B assay; details: TK-10, 48 h
CAKI-1 = assay: Growth inhibition of human CAKI-1 cells after 48 hrs by sulforhodamine B assay; details: CAKI-1, 48 h
[3] = Growth inhibition of human RXF393 cells after 48 hrs by sulforhodamine B assay; details: RXF 393, 48 h
A498 = assay: Growth inhibition of human A498 cells after 48 hrs by sulforhodamine B assay; details: A498, 48 h
ACHN = assay: Growth inhibition of human ACHN cells after 48 hrs by sulforhodamine B assay
786-0 = assay: Growth inhibition of human 786-0 cells after 48 hrs by sulforhodamine B assay; details: 786-0, 48 h
SK-OV-3 = assay: Growth inhibition of human SKOV3 cells after 48 hrs by sulforhodamine B assay; details: SK-OV-3, 48 h
OVCAR-8 = assay: Growth inhibition of human OVCAR8 cells after 48 hrs by sulforhodamine B assay; details: OVCAR-8, 48 h
[4] = Growth inhibition of human NCI-ADR-RES cells after 48 hrs by sulforhodamine B assay
[5] = Growth inhibition of human OVCAR4 cells after 48 hrs by sulforhodamine B assay; details: OVCAR-4, 48 h
[6] = Growth inhibition of human OVCAR5 cells after 48 hrs by sulforhodamine B assay; details: OVCAR-5, 48 h
IGROV-1 = assay: Growth inhibition of human IGROV1 cells after 48 hrs by sulforhodamine B assay; details: IGROV-1, 48 h
OVCAR-3 = assay: Growth inhibition of human OVCAR3 cells after 48 hrs by sulforhodamine B assay; details: OVCAR-3, 48 h
[7] = Growth inhibition of human UACC257 cells after 48 hrs by sulforhodamine B assay; details: UACC-257, 48 h
UACC-62 = assay: Growth inhibition of human UACC62 cells after 48 hrs by sulforhodamine B assay; details: UACC-62, 48 h
SK-MEL-28 = assay: Growth inhibition of human SK-MEL-28 cells after 48 hrs by sulforhodamine B assay; details: SK-MEL-28, 48 h
SK-MEL-5 = assay: Growth inhibition of human SK-MEL-5 cells after 48 hrs by sulforhodamine B assay; details: SK-MEL-5, 48 h
MDA-MB-435 = assay: Growth inhibition of human MDA-MB-435 cells after 48 hrs by sulforhodamine B assay; details: MDA-MB-435, 48 h
SK-MEL-2 = assay: Growth inhibition of human SK-MEL-2 cells after 48 hrs by sulforhodamine B assay; details: SK-MEL-2, 48 h
M14 = assay: Growth inhibition of human M14 cells after 48 hrs by sulforhodamine B assay; details: M14, 48 h
Malme-3M = assay: Growth inhibition of human MALME-3M cells after 48 hrs by sulforhodamine B assay
LOX IMVI = assay: Growth inhibition of human LOXIMVI cells after 48 hrs by sulforhodamine B assay
U-251 = assay: Growth inhibition of human U251 cells after 48 hrs by sulforhodamine B assay; details: U-251, 48 h
SNB-75 = assay: Growth inhibition of human SNB75 cells after 48 hrs by sulforhodamine B assay; details: SNB-75, 48 h
[8] = Growth inhibition of human SF539 cells after 48 hrs by sulforhodamine B assay; details: SF-539, 48 h
SNB-19 = assay: Growth inhibition of human SNB19 cells after 48 hrs by sulforhodamine B assay; details: SNB-19, 48 h
SF-295 = assay: Growth inhibition of human SF295 cells after 48 hrs by sulforhodamine B assay; details: SF-295, 48 h
SF-268 = assay: Growth inhibition of human SF268 cells after 48 hrs by sulforhodamine B assay; details: SF-268, 48 h
SW-620 = assay: Growth inhibition of human SW620 cells after 48 hrs by sulforhodamine B assay; details: SW-620, 48 h
KM12 = assay: Growth inhibition of human KM12 cells after 48 hrs by sulforhodamine B assay; details: KM12, 48 h
HT-29 = assay: Growth inhibition of human HT-29 cells after 48 hrs by sulforhodamine B assay; details: HT-29, 48 h
HCT-15 = assay: Growth inhibition of human HCT15 cells after 48 hrs by sulforhodamine B assay; details: HCT-15, 48 h
HCT-116 = assay: Growth inhibition of human HCT116 cells after 48 hrs by sulforhodamine B assay; details: HCT-116, 48 h
[9] = Growth inhibition of human HCC2998 cells after 48 hrs by sulforhodamine B assay; details: HCC 2998, 48 h
COLO 205 = assay: Growth inhibition of human COLO205 cells after 48 hrs by sulforhodamine B assay; details: COLO 205, 48 h
NCI-H522 = assay: Growth inhibition of human NCI-H522 cells after 48 hrs by sulforhodamine B assay; details: NCI-H522, 48 h
NCI-H460 = assay: Growth inhibition of human NCI-H460 cells after 48 hrs by sulforhodamine B assay; details: NCI-H460, 48 h
NCI-H322M = assay: Growth inhibition of human NCI-H322M cells after 48 hrs by sulforhodamine B assay
NCI-H23 = assay: Growth inhibition of human NCI-H23 cells after 48 hrs by sulforhodamine B assay; details: NCI-H23, 48 h
NCI-H226 = assay: Growth inhibition of human NCI-H226 cells after 48 hrs by sulforhodamine B assay; details: NCI-H226, 48 h
HOP-62 = assay: Growth inhibition of human HOP62 cells after 48 hrs by sulforhodamine B assay; details: HOP-62, 48 h
[10] = Growth inhibition of human HOP92 cells after 48 hrs by sulforhodamine B assay; details: HOP-92, 48 h
A549 = assay: Growth inhibition of human A549/ATCC cells after 48 hrs by sulforhodamine B assay; details: A549, 48 h
[11] = Growth inhibition of human EKVX cells after 48 hrs by sulforhodamine B assay
RPMI-8226 = assay: Growth inhibition of human RPMI8226 cells after 48 hrs by sulforhodamine B assay; details: RPMI-8226, 48 h
SR = assay: Growth inhibition of human SR cells after 48 hrs by sulforhodamine B assay
MOLT-4 = assay: Growth inhibition of human MOLT4 cells after 48 hrs by sulforhodamine B assay; details: MOLT-4, 48 h
K562 = assay: Growth inhibition of human K562 cells after 48 hrs by sulforhodamine B assay; details: K562, 48 h
HL-60(TB) = assay: Growth inhibition of human HL-60(TB) cells after 48 hrs by sulforhodamine B assay; details: HL-60, 48 h
CCRF-CEM = assay: Growth inhibition of human CCRF-CEM cells after 48 hrs by sulforhodamine B assay
Paracentrotus lividus [12] = assay: Microtubule destabilizing activity in sea urchin free-swimming blastula assessed as embryo spinning treated at 9 to 10 hrs post-fertilization measured after 0.15 to 15 hrs
Paracentrotus lividus [13] = assay: Antimitotic activity in sea urchin fertilized egg assessed as cleavage arrest treated at 8 to 20 mins post-fertilization measured at 2.5 to 5.5 hrs post-fertilization
Paracentrotus lividus [14] = assay: Antimitotic activity in sea urchin fertilized egg assessed as cleavage alteration treated at 8 to 20 mins post-fertilization measured at 2.5 to 5.5 hrs post-fertilization

SMILES: COc1ccc(-c2onc(N)c2-c2cc(OC)c3c(c2)OCO3)cc1
- GI50 (MDA-MB-468): 0.538 µM
- GI50 (T47D): 4.41 µM
- GI50 [1]: 2.94 µM
- GI50 (BT-549): 2.43 µM
- GI50 (MCF7): 0.962 µM
- GI50 (MDA-MB-231): 3.75 µM
- GI50 (DU-145): 3.99 µM
- GI50 (PC-3): 4.28 µM
- GI50 [2]: 14.3 µM
- GI50 (SN12C): 5.13 µM
- GI50 (TK-10): 12.3 µM
- GI50 (CAKI-1): 3.69 µM
- GI50 [3]: 2.94 µM
- GI50 (A498): 1.81 µM
- GI50 (ACHN): 6.74 µM
- GI50 (786-0): 6.56 µM
- GI50 (SK-OV-3): 4.2 µM
- GI50 (OVCAR-8): 4.26 µM
- GI50 [4]: 0.684 µM
- GI50 [5]: 16.1 µM
- GI50 [6]: 8.8 µM
- GI50 (IGROV-1): 10.6 µM
- GI50 (OVCAR-3): 2.39 µM
- GI50 [7]: 3.16 µM
- GI50 (UACC-62): 2.45 µM
- GI50 (SK-MEL-28): 5.62 µM
- GI50 (SK-MEL-5): 2.45 µM
- GI50 (MDA-MB-435): 0.29 µM
- GI50 (SK-MEL-2): 1.32 µM
- GI50 (M14): 1.4 µM
- GI50 (Malme-3M): 8.51 µM
- GI50 (LOX IMVI): 3.26 µM
- GI50 (U-251): 2.31 µM
- GI50 (SNB-75): 1.75 µM
- GI50 [8]: 3.25 µM
- GI50 (SNB-19): 6.74 µM
- GI50 (SF-295): 2.32 µM
- GI50 (SF-268): 13.3 µM
- GI50 (SW-620): 0.495 µM
- GI50 (KM12): 2.23 µM
- GI50 (HT-29): 1.49 µM
- GI50 (HCT-15): 1.14 µM
- GI50 (HCT-116): 2.01 µM
- GI50 [9]: 2.77 µM
- GI50 (COLO 205): 2.44 µM
- GI50 (NCI-H522): 0.796 µM
- GI50 (NCI-H460): 3.04 µM
- GI50 (NCI-H322M): 5.98 µM
- GI50 (NCI-H23): 3.08 µM
- GI50 (NCI-H226): 28 µM
- GI50 (HOP-62): 4.59 µM
- GI50 [10]: 6.35 µM
- GI50 (A549): 2.74 µM
- GI50 [11]: 6.58 µM
- GI50 (RPMI-8226): 4.07 µM
- GI50 (SR): 0.449 µM
- GI50 (MOLT-4): 3.28 µM
- GI50 (K562): 0.519 µM
- GI50 (HL-60(TB)): 1.3 µM
- GI50 (CCRF-CEM): 2.47 µM
- EC (Paracentrotus lividus [12]): >10 µM
- EC (Paracentrotus lividus [13]): >4 µM
- EC (Paracentrotus lividus [14]): 0.2 µM
